Our source for the % of control, % of inhibition and IC50 values is ChEMBL document CHEMBL5465560, “Selectivity Literature for EUbOPEN Chemogenomic Library” (2024).

Experiment [1] deals with T1, Protein kinase C epsilon type (Homo sapiens) (UniProt Q02156).
T1 sequence (whole entry): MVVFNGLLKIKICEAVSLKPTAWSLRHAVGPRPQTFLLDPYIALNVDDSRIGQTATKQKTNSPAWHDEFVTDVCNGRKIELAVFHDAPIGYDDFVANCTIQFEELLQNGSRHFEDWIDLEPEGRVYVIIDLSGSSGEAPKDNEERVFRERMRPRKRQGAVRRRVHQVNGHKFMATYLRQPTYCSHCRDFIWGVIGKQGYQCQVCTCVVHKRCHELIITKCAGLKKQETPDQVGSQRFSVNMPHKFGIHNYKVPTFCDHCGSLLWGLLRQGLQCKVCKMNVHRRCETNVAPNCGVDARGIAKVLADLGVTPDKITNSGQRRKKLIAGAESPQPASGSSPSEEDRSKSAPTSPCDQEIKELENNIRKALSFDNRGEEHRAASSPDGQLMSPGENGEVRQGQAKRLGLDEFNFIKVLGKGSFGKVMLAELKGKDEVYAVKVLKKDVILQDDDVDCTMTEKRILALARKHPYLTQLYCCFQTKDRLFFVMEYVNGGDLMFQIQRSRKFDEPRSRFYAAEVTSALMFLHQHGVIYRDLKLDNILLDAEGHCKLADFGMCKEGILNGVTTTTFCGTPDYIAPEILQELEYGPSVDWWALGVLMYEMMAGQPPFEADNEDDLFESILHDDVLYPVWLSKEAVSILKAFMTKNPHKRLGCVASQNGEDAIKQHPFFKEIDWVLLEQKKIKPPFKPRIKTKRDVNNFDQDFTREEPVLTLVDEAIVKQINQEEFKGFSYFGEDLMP
As to the kind of experiment: Selectivity interaction (ProQinase) EUB0000171b PRKCE.

The target in experiment [2] is T2, Dual specificity tyrosine-phosphorylation-regulated kinase 2 (Homo sapiens) (UniProt Q92630).
T2 sequence (whole entry): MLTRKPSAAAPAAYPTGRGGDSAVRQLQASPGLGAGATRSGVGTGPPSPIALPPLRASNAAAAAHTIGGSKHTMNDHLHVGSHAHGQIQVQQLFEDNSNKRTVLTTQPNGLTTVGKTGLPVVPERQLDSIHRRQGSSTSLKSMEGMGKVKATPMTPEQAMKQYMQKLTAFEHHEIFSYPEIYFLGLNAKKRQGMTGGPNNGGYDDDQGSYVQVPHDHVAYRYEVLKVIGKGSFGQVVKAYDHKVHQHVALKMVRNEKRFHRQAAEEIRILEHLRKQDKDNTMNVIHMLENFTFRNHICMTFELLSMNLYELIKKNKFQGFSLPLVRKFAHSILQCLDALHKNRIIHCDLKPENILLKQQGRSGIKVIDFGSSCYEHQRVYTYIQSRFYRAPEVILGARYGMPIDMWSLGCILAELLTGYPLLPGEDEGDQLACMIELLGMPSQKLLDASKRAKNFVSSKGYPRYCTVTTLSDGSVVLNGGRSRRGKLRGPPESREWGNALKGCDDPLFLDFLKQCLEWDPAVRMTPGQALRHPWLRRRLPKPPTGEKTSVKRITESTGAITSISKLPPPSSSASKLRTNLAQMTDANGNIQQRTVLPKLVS
As to the kind of experiment: Selectivity interaction (ProQinase) EUB0000171b DYRK2.

The target in the next experiment is Misshapen-like kinase 1 (Homo sapiens, UniProt Q8N4C8). Description: Selectivity interaction (SelectScreen Kinase Profiling (Thermo Fisher Scientific)) EUB0001558a MINK1. As to conditions: at 1 µM.
Experiment [3] has as its target Serine/threonine-protein kinase 35 (Homo sapiens) (UniProt Q8TDR2). Description: Selectivity interaction (Ambit KINOMEscan and KiNATiv profiling in Jurkat cells) EUB0000090b STK35. It counts as cell-based. As to conditions: at 1 µM.
Experiment [4] addresses Wee1-like protein kinase 2 (Homo sapiens) (UniProt P0C1S8). As to the kind of experiment: Selectivity interaction (KinomeScan (DiscoverX)) EUB0000655a WEE2. The following applies: at 10 µM.
The target of experiment [5] is Ribosomal protein S6 kinase beta-1 (Homo sapiens, UniProt P23443). As to the kind of experiment: Selectivity interaction (KinomeScan (DiscoverX)) EUB0000695a RPS6KB1. The following applies: at 100 nM.
Experiment [6] deals with T3, Tyrosine-protein kinase receptor TYRO3 (Homo sapiens) (UniProt Q06418).
T3 sequence (whole entry): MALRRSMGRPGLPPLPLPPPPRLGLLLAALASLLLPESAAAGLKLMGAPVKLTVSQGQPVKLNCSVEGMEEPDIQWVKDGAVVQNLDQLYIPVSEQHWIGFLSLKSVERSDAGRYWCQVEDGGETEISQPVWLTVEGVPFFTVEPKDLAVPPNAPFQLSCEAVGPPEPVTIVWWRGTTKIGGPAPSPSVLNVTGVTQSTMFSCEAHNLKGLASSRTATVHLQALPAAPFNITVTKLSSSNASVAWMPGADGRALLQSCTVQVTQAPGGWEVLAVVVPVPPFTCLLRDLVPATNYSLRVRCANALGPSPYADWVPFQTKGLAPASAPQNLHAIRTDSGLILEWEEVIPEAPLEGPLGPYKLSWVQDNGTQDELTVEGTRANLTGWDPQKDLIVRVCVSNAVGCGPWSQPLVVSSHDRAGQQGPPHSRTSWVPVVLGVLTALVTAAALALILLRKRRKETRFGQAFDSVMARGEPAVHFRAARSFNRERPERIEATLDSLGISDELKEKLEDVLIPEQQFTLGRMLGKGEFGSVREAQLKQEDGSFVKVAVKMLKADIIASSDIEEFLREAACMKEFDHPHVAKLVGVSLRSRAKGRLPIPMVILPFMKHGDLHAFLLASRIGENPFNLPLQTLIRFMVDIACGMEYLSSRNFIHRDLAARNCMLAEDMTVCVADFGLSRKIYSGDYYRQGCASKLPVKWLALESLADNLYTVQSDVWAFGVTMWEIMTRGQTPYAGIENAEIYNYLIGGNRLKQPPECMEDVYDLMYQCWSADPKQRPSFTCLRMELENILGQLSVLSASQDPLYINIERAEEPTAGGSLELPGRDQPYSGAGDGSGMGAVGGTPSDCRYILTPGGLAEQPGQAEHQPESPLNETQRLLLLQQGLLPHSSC
Description: Selectivity interaction (Kinase screening (Nanosyn)) EUB0000604a TYRO3.

The target of experiment [7] is Serine/threonine-protein kinase MARK2 (Homo sapiens) (UniProt Q7KZI7). As to the kind of experiment: Selectivity interaction (ActivX KiNativ screen (kinase selectivity in THP-1 cell lysates)) EUB0000639a MARK2. As to conditions: lysate, at 0.04 µM. It counts as subcellular.
Experiment [8] addresses Proto-oncogene tyrosine-protein kinase receptor Ret (Homo sapiens, UniProt P07949).

Serine/threonine-protein kinase 35 (Homo sapiens), sequence (Q8TDR2 whole entry): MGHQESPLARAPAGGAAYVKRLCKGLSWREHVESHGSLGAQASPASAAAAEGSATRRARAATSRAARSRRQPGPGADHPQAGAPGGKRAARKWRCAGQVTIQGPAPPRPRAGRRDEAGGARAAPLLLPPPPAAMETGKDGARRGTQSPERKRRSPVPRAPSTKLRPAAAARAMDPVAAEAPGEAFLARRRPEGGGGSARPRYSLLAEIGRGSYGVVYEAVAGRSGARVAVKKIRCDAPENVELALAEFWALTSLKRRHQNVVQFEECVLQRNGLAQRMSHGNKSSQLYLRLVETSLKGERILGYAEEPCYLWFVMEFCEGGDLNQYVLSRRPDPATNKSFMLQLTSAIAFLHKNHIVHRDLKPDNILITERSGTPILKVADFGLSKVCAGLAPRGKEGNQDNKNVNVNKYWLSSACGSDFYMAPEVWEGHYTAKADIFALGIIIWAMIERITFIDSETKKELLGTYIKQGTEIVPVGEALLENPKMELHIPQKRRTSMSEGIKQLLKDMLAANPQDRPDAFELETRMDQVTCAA
Proto-oncogene tyrosine-protein kinase receptor Ret, sequence (P07949 whole entry): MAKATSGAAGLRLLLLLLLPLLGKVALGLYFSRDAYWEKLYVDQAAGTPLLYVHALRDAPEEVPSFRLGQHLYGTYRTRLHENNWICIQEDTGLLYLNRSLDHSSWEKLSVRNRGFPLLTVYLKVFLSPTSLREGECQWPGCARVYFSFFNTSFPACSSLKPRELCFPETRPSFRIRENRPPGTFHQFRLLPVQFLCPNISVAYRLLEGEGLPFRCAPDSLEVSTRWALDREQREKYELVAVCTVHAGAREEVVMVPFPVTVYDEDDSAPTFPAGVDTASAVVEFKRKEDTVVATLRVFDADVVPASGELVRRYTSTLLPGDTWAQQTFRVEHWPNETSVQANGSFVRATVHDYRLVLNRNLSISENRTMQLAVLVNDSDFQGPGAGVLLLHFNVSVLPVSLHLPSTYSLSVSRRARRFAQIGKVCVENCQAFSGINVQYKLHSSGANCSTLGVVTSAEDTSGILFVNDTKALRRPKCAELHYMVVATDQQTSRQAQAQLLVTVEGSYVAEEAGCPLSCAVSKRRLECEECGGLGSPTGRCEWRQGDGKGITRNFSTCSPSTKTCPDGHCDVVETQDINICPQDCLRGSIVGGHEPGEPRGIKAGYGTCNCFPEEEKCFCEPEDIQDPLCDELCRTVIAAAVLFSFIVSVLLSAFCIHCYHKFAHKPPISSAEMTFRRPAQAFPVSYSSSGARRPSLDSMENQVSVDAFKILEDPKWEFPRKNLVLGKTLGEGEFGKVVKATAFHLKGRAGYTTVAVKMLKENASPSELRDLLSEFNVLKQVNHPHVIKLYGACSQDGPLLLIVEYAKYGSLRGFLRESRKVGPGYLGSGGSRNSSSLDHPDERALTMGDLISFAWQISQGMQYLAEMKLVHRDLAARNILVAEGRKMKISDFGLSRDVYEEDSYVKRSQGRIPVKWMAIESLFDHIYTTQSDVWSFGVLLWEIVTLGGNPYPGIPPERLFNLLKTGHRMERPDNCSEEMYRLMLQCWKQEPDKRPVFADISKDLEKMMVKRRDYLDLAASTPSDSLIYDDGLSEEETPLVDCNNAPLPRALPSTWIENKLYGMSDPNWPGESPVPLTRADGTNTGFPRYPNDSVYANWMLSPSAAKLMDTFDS
Ribosomal protein S6 kinase beta-1, sequence (P23443 whole entry, looked up): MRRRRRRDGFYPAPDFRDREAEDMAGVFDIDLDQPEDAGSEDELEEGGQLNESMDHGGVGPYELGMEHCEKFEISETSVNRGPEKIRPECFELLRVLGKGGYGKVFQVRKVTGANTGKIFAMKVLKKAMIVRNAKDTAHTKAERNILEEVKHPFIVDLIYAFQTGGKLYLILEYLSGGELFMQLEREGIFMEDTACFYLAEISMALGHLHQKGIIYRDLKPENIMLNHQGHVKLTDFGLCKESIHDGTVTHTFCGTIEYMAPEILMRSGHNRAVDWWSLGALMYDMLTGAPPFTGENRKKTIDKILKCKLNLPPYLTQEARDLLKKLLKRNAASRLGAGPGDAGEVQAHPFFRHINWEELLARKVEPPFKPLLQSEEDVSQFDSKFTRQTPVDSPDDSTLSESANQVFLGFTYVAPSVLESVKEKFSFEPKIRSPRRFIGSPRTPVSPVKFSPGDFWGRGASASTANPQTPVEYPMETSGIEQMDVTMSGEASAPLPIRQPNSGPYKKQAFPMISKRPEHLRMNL
Wee1-like protein kinase 2 (Homo sapiens), sequence (P0C1S8 whole entry, looked up): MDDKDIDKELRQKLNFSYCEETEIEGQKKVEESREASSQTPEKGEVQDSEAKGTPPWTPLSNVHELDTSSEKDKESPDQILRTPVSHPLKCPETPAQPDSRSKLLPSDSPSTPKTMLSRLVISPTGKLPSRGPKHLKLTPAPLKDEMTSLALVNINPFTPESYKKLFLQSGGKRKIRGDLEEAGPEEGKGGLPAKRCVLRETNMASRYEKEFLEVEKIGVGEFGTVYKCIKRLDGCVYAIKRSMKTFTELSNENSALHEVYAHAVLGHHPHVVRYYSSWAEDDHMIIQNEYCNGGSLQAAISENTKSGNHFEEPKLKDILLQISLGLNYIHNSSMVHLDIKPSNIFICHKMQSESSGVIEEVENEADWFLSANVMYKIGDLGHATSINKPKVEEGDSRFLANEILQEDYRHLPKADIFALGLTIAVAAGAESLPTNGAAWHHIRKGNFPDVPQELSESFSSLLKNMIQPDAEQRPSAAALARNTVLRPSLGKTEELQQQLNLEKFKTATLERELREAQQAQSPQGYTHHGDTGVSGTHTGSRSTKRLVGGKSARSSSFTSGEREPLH
Serine/threonine-protein kinase MARK2 (Homo sapiens), sequence (Q7KZI7 whole entry): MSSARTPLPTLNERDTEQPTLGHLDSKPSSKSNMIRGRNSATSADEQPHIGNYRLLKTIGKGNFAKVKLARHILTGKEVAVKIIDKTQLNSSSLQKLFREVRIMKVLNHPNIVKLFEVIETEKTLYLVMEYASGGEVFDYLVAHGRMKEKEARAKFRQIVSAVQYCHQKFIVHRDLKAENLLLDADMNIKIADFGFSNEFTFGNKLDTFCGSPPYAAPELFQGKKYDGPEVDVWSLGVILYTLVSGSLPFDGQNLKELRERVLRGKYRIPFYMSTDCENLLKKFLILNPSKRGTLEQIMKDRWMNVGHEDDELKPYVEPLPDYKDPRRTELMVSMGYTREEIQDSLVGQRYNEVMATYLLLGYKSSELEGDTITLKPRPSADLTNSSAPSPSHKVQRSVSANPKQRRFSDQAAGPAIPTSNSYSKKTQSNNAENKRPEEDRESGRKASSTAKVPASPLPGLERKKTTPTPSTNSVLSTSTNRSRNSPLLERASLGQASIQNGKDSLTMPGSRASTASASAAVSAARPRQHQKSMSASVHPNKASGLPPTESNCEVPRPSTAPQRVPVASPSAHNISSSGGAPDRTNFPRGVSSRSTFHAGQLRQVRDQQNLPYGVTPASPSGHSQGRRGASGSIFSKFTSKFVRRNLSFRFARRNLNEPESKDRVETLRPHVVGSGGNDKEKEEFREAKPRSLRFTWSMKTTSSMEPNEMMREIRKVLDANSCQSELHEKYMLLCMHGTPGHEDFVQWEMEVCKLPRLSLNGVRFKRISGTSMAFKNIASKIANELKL
Misshapen-like kinase 1, sequence (Q8N4C8 whole entry, looked up): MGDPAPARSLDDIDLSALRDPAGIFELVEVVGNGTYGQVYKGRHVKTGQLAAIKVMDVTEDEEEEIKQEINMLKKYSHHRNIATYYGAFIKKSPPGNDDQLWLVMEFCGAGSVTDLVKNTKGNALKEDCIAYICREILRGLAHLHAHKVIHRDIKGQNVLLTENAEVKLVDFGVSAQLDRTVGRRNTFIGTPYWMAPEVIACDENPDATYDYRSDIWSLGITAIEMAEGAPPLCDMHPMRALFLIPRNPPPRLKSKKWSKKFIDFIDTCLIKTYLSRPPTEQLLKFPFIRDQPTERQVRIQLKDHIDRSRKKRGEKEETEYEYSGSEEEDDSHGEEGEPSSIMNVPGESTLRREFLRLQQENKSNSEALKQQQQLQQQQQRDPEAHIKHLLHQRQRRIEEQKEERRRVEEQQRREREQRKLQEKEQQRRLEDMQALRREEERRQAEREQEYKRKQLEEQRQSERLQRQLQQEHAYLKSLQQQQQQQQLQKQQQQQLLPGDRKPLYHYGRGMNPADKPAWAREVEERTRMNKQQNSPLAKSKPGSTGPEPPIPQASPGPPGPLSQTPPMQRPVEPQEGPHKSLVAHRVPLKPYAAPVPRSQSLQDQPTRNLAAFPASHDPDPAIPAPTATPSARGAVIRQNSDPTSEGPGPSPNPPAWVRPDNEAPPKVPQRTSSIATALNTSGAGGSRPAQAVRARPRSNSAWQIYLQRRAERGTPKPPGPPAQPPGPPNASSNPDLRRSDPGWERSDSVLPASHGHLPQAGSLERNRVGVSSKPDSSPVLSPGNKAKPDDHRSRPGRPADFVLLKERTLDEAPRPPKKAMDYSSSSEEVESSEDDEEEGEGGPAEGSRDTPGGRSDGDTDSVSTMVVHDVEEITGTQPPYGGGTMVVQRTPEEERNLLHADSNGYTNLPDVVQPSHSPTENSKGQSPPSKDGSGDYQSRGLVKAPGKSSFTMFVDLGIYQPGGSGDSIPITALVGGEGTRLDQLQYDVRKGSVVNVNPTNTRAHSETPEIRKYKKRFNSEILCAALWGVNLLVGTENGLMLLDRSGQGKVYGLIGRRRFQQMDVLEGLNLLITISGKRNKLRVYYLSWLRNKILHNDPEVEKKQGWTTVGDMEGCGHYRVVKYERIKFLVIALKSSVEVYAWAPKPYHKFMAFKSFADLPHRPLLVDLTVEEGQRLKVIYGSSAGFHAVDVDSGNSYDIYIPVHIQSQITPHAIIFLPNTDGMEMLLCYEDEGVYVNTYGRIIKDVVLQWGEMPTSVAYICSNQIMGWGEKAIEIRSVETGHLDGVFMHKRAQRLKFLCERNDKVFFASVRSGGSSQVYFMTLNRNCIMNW

`C=CC(=O)Nc1cccc(C(=O)Nc2ccc(Nc3cc(-c4[nH]c(SC)nc4C)ccn3)cc2)c1`: the % of control in experiment [1] (at 1 µM) is 97%; in experiment [1] (at 5 µM), 108%; in experiment [2] (at 1 µM), 72%; in experiment [2] (at 5 µM), 30%.

`CC(C)(O)[C@H](F)CN1Cc2cc(NC(=O)c3cnn4cccnc34)c(N3CCOCC3)cc2C1=O` showed a % of inhibition at Misshapen-like kinase 1 of 80.5%.

`CN(C)C/C=C/C(=O)Nc1ccc(C(=O)N2CCCC(Nc3ncc(Cl)c(-c4c[nH]c5ccccc45)n3)C2)cc1` (stereo unspecified) showed a % of control in [3] of 95%.

The compound `CN(C)CCOc1ccc(-c2nc(-c3ccncc3)c(-c3ccc4c(c3)CC/C4=N\O)[nH]2)cc1` displayed a % of control in experiment [4] of 100%.

On to `Cc1cc(F)c(C(=O)Nc2cccc(-c3nncn3C(C)C)n2)cc1-n1cnc(C2CC2)c1`, for which the % of control in experiment [5] came out at 100%.

`Cc1cnc(Nc2ccc(F)cc2Cl)nc1-c1c[nH]c(C(=O)N[C@H](CO)c2cccc(Cl)c2)c1`: in experiment [6], the % of inhibition was 0%.

As for `CC[C@@H]1[C@H](F)C(=O)N[C@@H]1COc1nccc2cc(C(N)=O)c(OC)cc12` [ZIMLOVISERTIB], in experiment [7], the % of inhibition was 0.7%.

As for `CCc1cccc(CC)c1NC(=O)c1nn(C)c2c1CCc1cnc(Nc3ccc(C(=O)NC4CCN(C)CC4)cc3OC(F)(F)F)nc1-2`, the concentration for half-maximal inhibition (IC50) in experiment [8] is > 10 µM.

A word on the IC50: it is the concentration that gives 50% inhibition.
